Reference: publication PMC12053052, “Comprehensive physicochemical, biophysical, and in vitro characterization of lung surfactant SP-A peptidomimetics” (Rsc Pharmaceutics, 2025)
Values joined by “and” are separate entries in the source; they are usually repeats but may differ in a detail not shown here. Identical values can stand only once. “Also recorded” adds a separate entry of the source. No end group written: not given here.

What was measured:
[1] = not given; remark: listed apart in the source
[2] = Octanol/water partition coefficient; type: physicochemical; details: shake-flask 1-octanol/water 50:50 v/v, 3 mg peptide in 3 mL, 37 °C, 24 h shaking + 24 h separation, HPLC-UV 220 nm, mean ± SD, N = 3
Protocol: Using similar conditions reported earlier,[14] octanol/water partition coefficient (P) measurements were conducted. A mass of 3 mg of peptide powder was added to 3 mL of 1-octanol (1.5 mL) and water (1.5 mL) to create a 50 : 50 v/v octanol : water ratio in a glass vial and allowed to shake in temperature-controlled water bath at 37 °C. After 24 hours, the shaker was stopped and the vial was undisturbed for 24 hours to allow the solvents to separate. An aliquot (20 μL) of water phase and octanol phase was injected into HPLC to quantify the peptide concentration in each phase.
High-performance liquid chromatography was used to quantify the peptides. The analysis was performed with a Shimadzu LC-2010AHT HPLC system (Kyoto, Japan), with autosampler fitted to a 20 μL sampling loop and dual wavelength UV-Vis detector and reverse phase C18 Phenomenex Prodigy™column (Torrance, CA) with 250 × 4.6 mm, 5 μm particle size. The mobile phase consisted of (A) 0.065% TFA in water and (B) 0.05% TFA in ACN at a flow rate of 1.0 mL min^−1. Analysis was performed using the following gradient elution method: 100% A to 100% B in 15 minutes, maintained at 100% B until 17.5 minutes. The percentage of A reached 100% in 19.5 minutes and maintained until 25 minutes. The column was maintained at 25 °C. The injection volume was 20 μL. The UV detector was set at 220 nm wavelength. […]

[3] = In vitro solubility in pure solvents; type: physicochemical; details: excess solid, rotated 24 h at ambient room temperature, 0.2 μm filtered, HPLC-UV 220 nm, mean ± SD, N = 3; for solubility thermodynamic at 24 h: PBS, pH 7.4, aqueous buffer, thermodynamic from solid
Protocol: In vitro solubility measurements were conducted using conditions earlier reported.[13] Excess of peptide powder was added to known volume of pure solvent in a glass vial. The vial was allowed to rotate at ambient room temperature for 24 hours.[13] The test solution was filtered using 0.2 μm PTFE or PVDF membrane filters for organic and aqueous solvents respectively. The filtered solution was chemically analyzed by HPLC using conditions described in the HPLC section below.
High-performance liquid chromatography was used to quantify the peptides. The analysis was performed with a Shimadzu LC-2010AHT HPLC system (Kyoto, Japan), with autosampler fitted to a 20 μL sampling loop and dual wavelength UV-Vis detector and reverse phase C18 Phenomenex Prodigy™column (Torrance, CA) with 250 × 4.6 mm, 5 μm particle size. The mobile phase consisted of (A) 0.065% TFA in water and (B) 0.05% TFA in ACN at a flow rate of 1.0 mL min^−1. Analysis was performed using the following gradient elution method: 100% A to 100% B in 15 minutes, maintained at 100% B until 17.5 minutes. The percentage of A reached 100% in 19.5 minutes and maintained until 25 minutes. The column was maintained at 25 °C. The injection volume was 20 μL. The UV detector was set at 220 nm wavelength. The solvents used to dissolve 10-AA and 20-AA peptide analysis were PBS and pure water, respectively.

[4] = test system: A549 (human alveolar epithelial lung cells); assay: In vitro cell viability, resazurin assay; type: cell-based; details: 0.1–1000 μM peptide, 72 h, relative to growth medium control, n = 6, ANOVA/Tukey p < 0.05
Excerpt: (§1) The cell viability of three different human pulmonary cell lines from different lung areas representing the conducting airways, the mid-lung and deep lung respiratory regions of the small airways. They are A549 (human alveolar epithelial lung cells), H358 (human bronchioalveolar epithelial cells) and NCI-H441 (human papillary lung adenocarcinoma cells), were studied using the Resazurin assay. Pulmonary cell lines A549 (ATCC® CCL-185™), H358 (ATCC® CRL-5807™) and NCI-H441 (ATCC® HTB-174™) were purchased from the American Type Culture Collection ATCC® (Manassas, VA). As previously reported,[16] A549 and H358 were grown in Dulbecco's modified eagle's medium (DMEM) Advanced 1× supplemented with 10% v/v fetal bovine serum (FBS), Pen-Strep (100 U mL^−1, 100 μg mL^−1), Fungizone® (0.5 μg mL^−1 amphotericin B, 0.41 μg mL^−1 sodium deoxycholate) and 2 mM L-glutamine obtained from Gibco® by Life Technologies (Thermo Fisher Scientific Inc., Waltham, MA). H441 cell line was grown in RPMI 1640 with L-glutamine Gibco® by Life Technologies (Thermo Fisher Scientific Inc., Waltham, MA).
(§2) The assay was conducted using similar previously reported conditions.[16] Briefly, in Nunc™ MicroWell™ 96-well optical-bottom plates with polymer base (ThermoScientific Waltham, MA) each cell line was seeded at a concentration of 5000 cells in 100 μL per well (six wells, n = 6) and allowed to attach for 48 hours. The cells were treated with 100 μL volume of different concentrations (0.1–1000 μM) of the peptides dissolved in the respective media. After 72 hours, the plate was treated with 20 μL of 10 μM resazurin solution. After 3–4 hours, the fluorescence intensity was read at 514 nm (excitation) and 590 nm (emission) wavelengths using the Synergy H1 Multi-Mode Reader (BioTek Instruments, Inc., Winooski, Vermont). The corresponding growth media was used as control for each cell line. Relative viability was calculated as a ratio of fluorescence intensity of the sample to the control. [drawing 1]

[5] = test system: NCI-H441 (human papillary lung adenocarcinoma cells); assay: In vitro cell viability, resazurin assay; type: cell-based; details: 0.1–1000 μM peptide, 72 h, relative to growth medium control, n = 6, ANOVA/Tukey p < 0.05
Excerpt: as §1, §2

[6] = test system: H358 (human bronchioalveolar epithelial cells); assay: In vitro cell viability, resazurin assay; type: cell-based; details: 0.1–1000 μM peptide, 72 h, relative to growth medium control, n = 6, ANOVA/Tukey p < 0.05
Excerpt: as §1, §2

Row | Substance | Enthalpy (ΔH) of melting [1] [J/g] | Solubility in MilliQ water ([3]; thermodynamic) [µg/mL] | Solubility in absolute ethanol ([3]; thermodynamic) [µg/mL] | Solubility in methanol ([3]; thermodynamic) [µg/mL] | solubility thermodynamic at 24 h [3] [µg/mL] | other results
1 | H-KEQCVEMYTD-OH | 3.08 |  |  |  |  | Melting temperature (Tm), characteristic endothermic peak: 171 °C and 168 °C
2 | H-PAGRGKEQCVEMYTDGQWND-OH | 1.08 |  |  |  |  | 
3 | KEQCVEMYTD [SP-A 10-AA AC] |  | 420 ± 40 | 40 ± 10 | 10 ± 0.3 |  | logP ([2]; read-out: Log P (octanol/water partition coefficient)): -1.07 ± 0.2; Solubility in PBS (pH 7.4) ([3]; thermodynamic): 1.16 ± 0.01 mg mL^−1
4 | KEQCVEMYTD [SP-A 10-AA PS] |  | 12200 ± 50 | 2060 ± 30 | 4250 ± 10 | 1810 ± 20 | Log P (octanol/water partition coefficient) [2]: −1.79
5 | PAGRGKEQCVEMYTDGQWND [SP-A 20-AA AC] |  |  | 20 ± 20 | 20 ± 5 |  | Relative cell viability, A549 [4]: significantly reduced cell viability at concentrations above 100 μM; Relative cell viability, H441 [5]: reduction in viability at higher concentrations; also recorded: significantly reduced cell viability at concentrations above 100 μM
6 | PAGRGKEQCVEMYTDGQWND [SP-A 20-AA PS] |  |  | 110 ± 50 | 1450 ± 20 | 470 ± 4 | Relative cell viability, H358 [6]: decreased viability at higher concentrations; also recorded: statistically significant decrease in viability only with 20-AA PS at 1000 μM
